Laboratory results from article PMC5011342, “A high throughput drug screening assay to identify compounds that promote oligodendrocyte differentiation using acutely dissociated and purified oligodendrocyte precursor cells” (BMC Research Notes, 2016).
Read-outs that look alike come from different tables or passages of the source.

Experiments:
[1] = test system: acutely dissociated and purified rat OPCs; experiment: Acute OL differentiation assay (MBP expression/cell, immunofluorescent image quantification); assay type: cell-based; conditions: for activation at 0.4 µM: read-out: 0.4 uM (% Quet)
Procedure, shortened: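 Oligodendrocyte precursor cells were enriched from P6-P7 Sprague–Dawley rat brains by immunopanning (RAN-2 and GalC depletion, O4 selection), plated at 5000 cells/well in serum-free, mitogen-free differentiation media on PDL/laminin 96-well view plates, centrifuged at 200×g, and pre-incubated 1–2 h before test compounds were added in quadruplicate. On DIV4, cells were fixed, stained for MBP and DAPI, imaged automatically, and MBP expression per cell was quantified.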

expanded OPCs = experiment: cells; conditions: for viability at 0.1 µM / viability at 1 µM / viability at 10 µM: Rattus norvegicus, 72 h
Procedure, shortened: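 Expanded OPCs seeded at 10,000 cells/well in differentiation media, then exposed to NCC library compounds at 10, 1 and 0.1 µM (quadruplicate, 0.1% DMSO) for three days. Viability read as alamarBlue fluorescence (560/590 nm) after 4 h at 37 °C; tunicamycin 5 ng/ml served as toxicity control.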

[2] = Rattus norvegicus, test compound at 2 uM, NCC library screen, sheet "All OLga data", relative to quetiapine, read-out: 2 uM (% Quet)
[3] = Rattus norvegicus, test compound at 10 uM, NCC library screen, sheet "All OLga data", relative to quetiapine, read-out: 10 uM (% Quet)
[4] = alamarBlue viability of expanded OPCs, compound at 0.1 µM, relative to DMSO control
[5] = alamarBlue viability of expanded OPCs, compound at 1 µM, relative to DMSO control
[6] = alamarBlue viability of expanded OPCs, compound at 10 µM, relative to DMSO control
[7] = read-out: 0.1 µM (% DMSO), alamarBlue viability, NCC library compound at 0.1 µM, sheet "All Tox data"
[8] = read-out: 1 µM (% DMSO), alamarBlue viability, NCC library compound at 1 µM, sheet "All Tox data"
[9] = read-out: 10 µM (% DMSO), alamarBlue viability, NCC library compound at 10 µM, sheet "All Tox data"
[10] = Rattus norvegicus, test compound at 2 uM, MBP expression relative to quetiapine, NCC library screen, sheet "All OLga data", read-out: 2 uM (% Quet)
[11] = Rattus norvegicus, test compound at 10 uM, MBP expression relative to quetiapine, NCC library screen, sheet "All OLga data", read-out: 10 uM (% Quet)
[12] = Rattus norvegicus, 2 uM test compound, relative to quetiapine, sheet "All OLga data", read-out: OL differentiation, 2 uM (% Quet)
[13] = Rattus norvegicus, 10 uM test compound, relative to quetiapine, sheet "All OLga data", read-out: OL differentiation, 10 uM (% Quet)
[14] = read-out: 0.1 µM (% DMSO), alamarBlue viability of expanded OPCs, compound at 0.1 µM, sheet All Tox data
[15] = read-out: 1 µM (% DMSO), alamarBlue viability of expanded OPCs, compound at 1 µM, sheet All Tox data
[16] = read-out: 10 µM (% DMSO), alamarBlue viability of expanded OPCs, compound at 10 µM, sheet All Tox data

Structure (SMILES) | activation at 2 µM [1, 2] | activation at 10 µM [1, 3] | 0.1 µM (% DMSO) (expanded OPCs; [4]) | 1 µM (% DMSO) (expanded OPCs; [5]) | 10 µM (% DMSO) (expanded OPCs; [6]) | viability at 0.1 µM (expanded OPCs; [7]) | viability at 1 µM (expanded OPCs; [8]) | viability at 10 µM (expanded OPCs; [9]) | further results
NC(=O)c1cnccn1 [Pyrazinamide] | -8.1% | -1.1% | 89.2 % DMSO | 94.5 % DMSO | 87.7 % DMSO |  |  |  | 
CN(C)C(=O)Oc1ccc[n+](C)c1 [Pyridostigmine Bromide] | -0.46% | 21.5% | 92.2 % DMSO | 86.7 % DMSO | 84.4 % DMSO |  |  |  | 
CCc1nc(N)nc(N)c1-c1ccc(Cl)cc1 [Pyrimethamine] | -12.3% | -35.3% |  |  |  | 100% | 99.6% | 66.5% | 
OCCOCCN1CCN(C2=Nc3ccccc3Sc3ccccc32)CC1 [Quetiapine hemifumarate] | 130% | 87.7% |  |  |  | 118% | 149% | 117% | 
CCOC(=O)[C@H](CCc1ccccc1)N[C@@H](C)C(=O)N1Cc2ccccc2C[C@H]1C(=O)O [Quinapril] |  |  | 95.3 % DMSO | 90.0 % DMSO | 85.6 % DMSO |  |  |  | activation at 2 µM [1, 10]: 2.2%; activation at 10 µM [1, 11]: -12.2%
C=C[C@H]1C[N@@]2CC[C@H]1C[C@H]2[C@H](O)c1ccnc2ccc(OC)cc12 [Quinine] |  |  | 93.4 % DMSO | 87.0 % DMSO |  |  |  |  | activation at 2 µM [1, 10]: -22.9%; activation at 10 µM [1, 11]: -65.5%
CN1CCc2cc(Cl)c(O)cc2[C@@H](c2ccccc2)C1 [R(+) SCH 23390] |  |  |  |  |  |  |  |  | 0.4 uM (% Quet) ([1]; test compound at 0.4 uM, NCC library screen, sheet "All OLga data", relative to quetiapine): -16.1 % Quet; 2 uM (% Quet) ([1]; test compound at 2 uM, NCC library screen, sheet "All OLga data", relative to quetiapine): -24.3 % Quet; 0.1 µM (% DMSO) (expanded OPCs; alamarBlue viability, NCC library compound at 0.1 µM, sheet "All Tox data"): 84.2 % DMSO; 1 µM (% DMSO) (expanded OPCs; alamarBlue viability, NCC library compound at 1 µM, sheet "All Tox data"): 78.8 % DMSO; 10 µM (% DMSO) (expanded OPCs; alamarBlue viability, NCC library compound at 10 µM, sheet "All Tox data"): 64.1 % DMSO
COc1ccc2[nH]cc(C3=CCNCC3)c2c1 [RU-24969] | -15.5% |  |  |  |  | 83.2% | 62.4% | 36.7% | activation at 0.4 µM ([1]; Rattus norvegicus, test compound at 0.4 uM, NCC library screen, sheet "All OLga data", relative to quetiapine): -5.3%
COCCCOc1ccnc(C[S+]([O-])c2nc3ccccc3[nH]2)c1C (stereo not shown) [Rabeprazole] | -8.5% | -69.9% |  |  |  | 101% | 85.1% | 76.7% | 
CC(=O)SCC(Cc1ccccc1)C(=O)NCC(=O)OCc1ccccc1 (stereo not shown) [Racecadotril] |  |  |  |  |  |  |  |  | activation at 2 µM [1, 12]: 23%; activation at 10 µM [1, 13]: 56.4%; viability at 0.1 µM (expanded OPCs; [14]): 87.4%; viability at 1 µM (expanded OPCs; [15]): 92.9%; viability at 10 µM (expanded OPCs; [16]): 77.6%
CCN1CCC[C@H]1CNC(=O)c1c(O)c(Cl)cc(Cl)c1OC [Raclopride] |  |  |  |  |  |  |  |  | activation at 2 µM [1, 12]: 12.4%; activation at 10 µM [1, 13]: 43.4%; viability at 0.1 µM (expanded OPCs; [14]): 93.2%; viability at 1 µM (expanded OPCs; [15]): 92.8%; viability at 10 µM (expanded OPCs; [16]): 89.9%
O=C(c1ccc(OCCN2CCCCC2)cc1)c1c(-c2ccc(O)cc2)sc2cc(O)ccc12 [Raloxifene, reference compound] |  |  | 161.1 % DMSO | 38.6 % DMSO | 7.7 % DMSO |  |  |  | activation at 0.08 µM ([1]; Rattus norvegicus, test compound at 0.08 uM, MBP expression relative to quetiapine, NCC library screen, sheet "All OLga data", read-out: 0.08 uM (% Quet)): 91.9%; activation at 0.4 µM ([1]; Rattus norvegicus, test compound at 0.4 uM, MBP expression relative to quetiapine, NCC library screen, sheet "All OLga data"): -62.1%; EC50 ([1]; Rattus norvegicus, average EC50 for induction of OL differentiation from independent biological replicates, eight concentrations): 100 nM; hit in OL differentiation assay, MRF-TMC ([1]; ● = confirmed hit in this paper's assay): ●
